# Patent US12534450B2, “Methods and compositions for targeting PD-L1” (Aligos Therapeutics, Inc., priority 2021, dated 2026)
# Legend:
# PD-1/PD-L1 PPI = PD-1/PD-L1 PPI (Homo sapiens, UniProt Q9NZQ7); assay: PDL1/PD1 Binding Assay; details: PDL1-6×His 0.3 nM, PD1-Fc-Avi-Biotin 2.5 nM, Acceptor/Donor beads, Envision reader
# In short: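 AlphaScreen competition: compound (1% DMSO) preincubated 30 min RT with PDL1-6×His (0.3 nM), then PD1-Fc-Avi-Biotin (2.5 nM) 30 min; anti-His acceptor and streptavidin donor beads (20 ug/mL each) added, 1 h each, dark up to overnight. Buffer 25 mM Hepes pH 7.4, 150 mM NaCl. IC50 by four-parameter fit.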
# PD-1/PD-L1 interaction = assay: PD-1/PD-L1 NFAT Reporter Assay (co-culture of Jurkat T cells overexpressing PD-1 and PD-L1 expressing CHO cells); assay type: cell-based; details: co-culture 6 hrs at 37° C., NFAT-mediated luciferase activity
# In short: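 Compounds added to CHO cells expressing surface anti-CD3 and PD-L1, then Jurkat cells with PD-1 and NFAT-driven luciferase seeded on top; co-culture 6 hrs at 37° C. Luminescence read after ONE-Glo addition, EC50 from dose-response fit.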
# Chain of PD-1/PD-L1 PPI (Q9NZQ7 19-238 limits assumed): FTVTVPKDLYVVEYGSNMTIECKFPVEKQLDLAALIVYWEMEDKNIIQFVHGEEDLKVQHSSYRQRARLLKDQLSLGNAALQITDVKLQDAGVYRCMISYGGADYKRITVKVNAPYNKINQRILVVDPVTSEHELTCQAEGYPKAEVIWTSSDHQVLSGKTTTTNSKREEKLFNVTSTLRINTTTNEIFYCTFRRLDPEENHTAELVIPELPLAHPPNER
Compound,IC50 (PD-1/PD-L1 PPI),"EC50 (PD-1/PD-L1 interaction; Homo sapiens, Jurkat, 6 h)",EC50 (PD-1/PD-L1 interaction)
COc1nc(-c2cccc(-c3cccc(NC(=O)c4cn(C)c(=O)n(C)c4=O)c3OC)c2Cl)cc2c1[C@@H](NC[C@@H]1CCC(=O)N1)CC2 [Compound A-53],≤ 10 nM,100 to 1000 nM,–
COc1nc(-c2cccc(-c3cccc(NC(=O)c4c[nH]c(=O)[nH]c4=O)c3C)c2Cl)cc2c1[C@@H](NC[C@@H]1CCC(=O)N1)CC2 [Compound A-54],≤ 10 nM,10 to 100 nM,–
COc1nc(-c2cccc(-c3cccc(NC(=O)c4c[nH]c(=O)n(C)c4=O)c3C)c2Cl)cc2c1[C@@H](NC[C@@H]1CCC(=O)N1)CC2 [Compound A-55],≤ 10 nM,≤ 10 nM,–
COc1nc(-c2cccc(-c3cccc(NC(=O)c4cn(C)c(=O)[nH]c4=O)c3C)c2Cl)cc2c1[C@@H](NC[C@@H]1CCC(=O)N1)CC2 [Compound A-56],≤ 10 nM,10 to 100 nM,–
COc1nc(-c2cccc(-c3cccc(NC(=O)c4cn(C)c(=O)n(C)c4=O)c3C#N)c2Cl)cc2c1[C@@H](NC[C@@H]1CCC(=O)N1)CC2 [Compound A-57],≤ 10 nM,≤ 10 nM,–
COc1nc(-c2cccc(-c3cccc(NC(=O)c4nn(C)c(=O)n(C)c4=O)c3C)c2Cl)cc2c1[C@@H](NC[C@@H]1CCC(=O)N1)CC2 [Compound A-58],≤ 10 nM,≤ 10 nM,–
COc1nc(-c2cccc(-c3ccc(F)c(NC(=O)c4cn(C)c(=O)n(C)c4=O)c3C)c2Cl)cc2c1[C@@H](NC[C@@H]1CCC(=O)N1)CC2 [Compound A-59],≤ 10 nM,10 to 100 nM,–
COc1nc(-c2cccc(-c3cc(F)cc(NC(=O)c4cn(C)c(=O)n(C)c4=O)c3C)c2Cl)cc2c1[C@@H](NC[C@@H]1CCC(=O)N1)CC2 [Compound A-60],≤ 10 nM,≤ 10 nM,–
COc1nc(-c2cccc(-c3cc(Cl)cc(NC(=O)c4cn(C)c(=O)n(C)c4=O)c3C)c2Cl)cc2c1[C@@H](NC[C@@H]1CCC(=O)N1)CC2 [Compound A-61],≤ 10 nM,10 to 100 nM,–
COc1nc(-c2cccc(-c3cc(F)cc(NC(=O)c4nn(C)c(=O)n(C)c4=O)c3C)c2Cl)cc2c1[C@@H](NC[C@@H]1CCC(=O)N1)CC2 [Compound A-62],≤ 10 nM,≤ 10 nM,–
COc1nc(-c2cccc(-c3cc(F)cc(NC(=O)c4ccnn(C)c4=O)c3C)c2Cl)cc2c1[C@@H](NC[C@@H]1CCC(=O)N1)CC2 [Compound A-63],≤ 10 nM,≤ 10 nM,–
COc1nc(-c2cc(F)cc(-c3cc(F)cc(NC(=O)c4cn(C)c(=O)n(C)c4=O)c3C)c2Cl)cc2c1[C@@H](NC[C@@H]1CCC(=O)N1)CC2 [Compound A-64],≤ 10 nM,≤ 10 nM,–
COc1nc(-c2cccc(-c3cc(F)cc(NC(=O)c4cn(C)c(=O)n(C)c4=O)c3Cl)c2Cl)cc2c1[C@@H](NC[C@@H]1CCC(=O)N1)CC2 [Compound A-65],≤ 10 nM,≤ 10 nM,–
COc1nc(-c2cc(F)cc(-c3cc(F)cc(NC(=O)c4cn(C)c(=O)n(C)c4=O)c3Cl)c2Cl)cc2c1[C@@H](NC[C@@H]1CCC(=O)N1)CC2 [Compound A-66],≤ 10 nM,10 to 100 nM,–
COc1nc(-c2ccc(F)c(-c3cccc(NC(=O)c4cn(C)c(=O)n(C)c4=O)c3C)c2F)cc2c1[C@@H](NC[C@@H]1CCC(=O)N1)CC2 [Compound A-67],≤ 10 nM,≤ 10 nM,–
COc1nc(-c2ccc(F)c(-c3cccc(NC(=O)c4cn(C)c(=O)n(C)c4=O)c3C)c2F)cc2c1[C@@H](NC[C@@H]1CCC(=O)N1)CC2 [Compound A-68],≤ 10 nM,–,10 to 100 nM
COc1nc(-c2cc(F)cc(-c3cccc(NC(=O)c4cn(C)c(=O)n(C)c4=O)c3C)c2Cl)cc2c1[C@@H](NC[C@@H]1CCC(=O)N1)CC2 [Compound A-69],≤ 10 nM,≤ 10 nM,–
COc1nc(-c2c(F)ccc(-c3cccc(NC(=O)c4cn(C)c(=O)n(C)c4=O)c3C)c2F)cc2c1[C@@H](NC[C@@H]1CCC(=O)N1)CC2 [Compound A-70],≤ 10 nM,10 to 100 nM,–
COc1nc(-c2cccc(-c3cccc(NC(=O)c4cn(C)c(=O)n(C)c4=O)c3Cl)c2Cl)cc2c1C(N1CCN3C(=O)CC[C@H]3C1)CC2 (some centres unmarked) [Compound A-117],≤ 10 nM,10 to 100 nM,–
COc1nc(-c2cccc(-c3cccc(NC(=O)c4cn(C)c(=O)n(C)c4=O)c3Cl)c2Cl)cc2c1C(N1CCN3C(=O)CC[C@@H]3C1)CC2 (some centres unmarked) [Compound A-118],≤ 10 nM,10 to 100 nM,–

Compound,IC50 (PD-1/PD-L1 PPI),"EC50 (PD-1/PD-L1 interaction; Homo sapiens, Jurkat, 6 h)",EC50 (PD-1/PD-L1 interaction)
COc1nc(-c2cccc(-c3cccc(NC(=O)c4cn(C)c(=O)n(C)c4=O)c3Cl)c2Cl)cc2c1C(N1CCC3(CN(C(=O)OC(C)(C)C)C3)C1)CC2 (centres unmarked) [Compound A-119],≤ 10 nM,100 to 1000 nM,–
COc1nc(-c2cccc(-c3cccc(NC(=O)c4cn(C)c(=O)n(C)c4=O)c3Cl)c2Cl)cc2c1C(N)C(O)C2 (centres unmarked) [Compound A-120],≤ 10 nM,10 to 100 nM,–
COc1nc(-c2cccc(-c3cccc(NC(=O)c4cn(C)c(=O)n(C)c4=O)c3C)c2Cl)cc2c1C(NC[C@@H]1CCC(=O)N1)C(C)C2 (some centres unmarked) [Compound A-121],≤ 10 nM,10 to 100 nM,–
COc1nc(-c2cccc(-c3cccc(NC(=O)c4cn(C)c(=O)n(C)c4=O)c3C)c2Cl)cc2c1C(NC[C@@H]1CCC(=O)N1)CC2C (some centres unmarked) [Compound A-122],≤ 10 nM,100 to 1000 nM,–
COc1nc(-c2cccc(-c3cccc(Nc4ncnc5cccnc45)c3Cl)c2Cl)cc2c1[C@@H](NC[C@@H]1CCC(=O)N1)CC2 [Compound B-2],≤ 10 nM,10 to 100 nM,–
COc1nc(-c2cccc(-c3cccc(Nc4nccc5cccnc45)c3Cl)c2Cl)cc2c1[C@@H](NC[C@@H]1CCC(=O)N1)CC2 [Compound B-3],≤ 10 nM,100 to 1000 nM,–
COc1nc(-c2cccc(-c3cccc(Nc4nccc5nccnc45)c3Cl)c2Cl)cc2c1[C@@H](NC[C@@H]1CCC(=O)N1)CC2 [Compound B-4],≤ 10 nM,10 to 100 nM,–
COc1nc(-c2cccc(-c3cccc(NC(=O)c4cn(C)c(=O)n(C)c4=O)c3Cl)c2Cl)cc2c1C(N1CC(OC)C1)CC2 [Compound D-1],≤ 10 nM,≤ 10 nM,–
COc1nc(-c2cccc(-c3cccc(NC(=O)c4cn(C)c(=O)n(C)c4=O)c3Cl)c2Cl)cc2c1C(N1CC(O)C1)CC2 [Compound D-2],≤ 10 nM,≤ 10 nM,–
COc1nc(-c2cccc(-c3cccc(NC(=O)c4cn(C)c(=O)n(C)c4=O)c3Cl)c2Cl)cc2c1C(N1CC3(CCNC3=O)C1)CC2 [Compound D-3],≤ 10 nM,≤ 10 nM,–
COc1nc(-c2cccc(-c3cccc(NC(=O)c4cn(C)c(=O)n(C)c4=O)c3Cl)c2Cl)cc2c1C(N[C@@H]1COC[C@@H]1O)CC2 (stereo partly drawn) [Compound D-4],≤ 10 nM,10 to 100 nM,–
COc1nc(-c2cccc(-c3cccc(NC(=O)c4cn(C)c(=O)n(C)c4=O)c3Cl)c2Cl)cc2c1C(NCCO)CC2 [Compound D-5],≤ 10 nM,10 to 100 nM,–
COc1nc(-c2cccc(-c3cccc(NC(=O)c4cn(C)c(=O)n(C)c4=O)c3Cl)c2Cl)cc2c1C(N[C@@H]1CCOC[C@H]1O)CC2 (stereo partly drawn) [Compound D-6],≤ 10 nM,10 to 100 nM,–
COc1nc(-c2cccc(-c3cccc(NC(=O)c4cn(C)c(=O)n(C)c4=O)c3Cl)c2Cl)cc2c1C(N[C@H]1CCOC[C@H]1O)CC2 (stereo partly drawn) [Compound D-7],≤ 10 nM,10 to 100 nM,–
COc1nc(-c2cccc(-c3cccc(NC(=O)c4cn(C)c(=O)n(C)c4=O)c3C)c2Cl)cc2c1C(NCC(N)=O)CC2 [Compound D-9],≤ 10 nM,10 to 100 nM,–
COc1nc(-c2cccc(-c3cccc(NC(=O)c4cn(C)c(=O)n(C)c4=O)c3C)c2Cl)cc2c1C(NC1COC1)CC2 [Compound D-10],≤ 10 nM,10 to 100 nM,–
COc1nc(-c2cccc(-c3cccc(NC(=O)c4cn(C)c(=O)n(C)c4=O)c3C)c2Cl)cc2c1C(NC1CC1)CC2 [Compound D-11],≤ 10 nM,10 to 100 nM,–
COc1nc(-c2cccc(-c3cccc(NC(=O)c4cn(C)c(=O)n(C)c4=O)c3Cl)c2Cl)cc2c1C(N1CC3(CNC(=O)O3)C1)CC2 [Compound D-15],≤ 10 nM,10 to 100 nM,–
COc1nc(-c2cccc(-c3cccc(NC(=O)c4cn(C)c(=O)n(C)c4=O)c3Cl)c2Cl)cc2c1C(N1CC3(CCN(C(=O)OC(C)(C)C)C3)C1)CC2 [Compound D-16],10 to 100 nM,100 to 1000 nM,–
COc1nc(-c2cccc(-c3cccc(NC(=O)c4cn(C)c(=O)n(C)c4=O)c3C)c2C)cc2c1C(N1CC(C)(O)C1)CC2 [Compound D-17],≤ 10 nM,10 to 100 nM,–
